Measured values as given in US6875773B1, “Combination therapy for treatment of FIV infection” (priority 1998, dated 2005).

Columns and labels:
FIVPet = experiment: Anti-FIV activity (RT activity in supernatant) in feline T-cell line chronically infected with FIVPet (FL-4 cells); type: cell-based, Feline immunodeficiency virus; settings: nontoxic doses
Description: (§1) The antiviral activity of the drugs at noncytotoxic doses were evaluated in feline T-cell lines chronically infected with either FIVPet (subtype A strain) (panel A), or FIVBang (subtype B strain) (panel B). The RT data are presented as % control, whereby % control represents RT mean of triplicate treated cultures divided by RT mean of triplicate untreated cultures and multiplied by 100. The RT data on harvest days at 6, 9, and 12 are shown.
(§2) In the first set of in vitro studies, feline T-cell lines chronically infected with FIVPet, (FL-4 cells) or FIVBang, (FIVBang/FeT-J cells) at 2×10^5 cells/ml were treated for 3 weeks with a single drug or various combinations of AZT, 3TC, an FIV protease inhibitor (FIV-PI; Hoescht-Bayer HBY-793), and HIV protease inhibitors (HIV-PI) (FIGS. 1A and 1B). Saquinavir (SQV) and Indinavir (IDV) were used as the HIV-PIs. Culture supernatants were harvested and the cells were resuspended in fresh culture media containing appropriate drug(s) at […]. Viral replication was determined by measuring the levels of reverse transcriptase (RT) activity in the culture supernatants (Rey et al., 1984). Drug toxicity in these cultures were monitored by viability and absolute cell count analyses using trypan blue exclusion method (Mishell et al., 1980).
(§3) Single and combination drug doses which were determined to be nontoxic to the test cells were used in these studies.

FIVBang [1] = experiment: Anti-FIV activity (RT activity in supernatant) in feline T-cell line chronically infected with FIVBang (FIVBang/FeT-J cells); type: cell-based, Feline immunodeficiency virus; settings: nontoxic doses
Description: as §1, §2, §3

FIVBang [2] = experiment: Anti-FIV activity (RT activity) in primary cat PBMC infected with FIVBang; type: cell-based, Feline immunodeficiency virus; settings: for effect of adding the protease inhibitor to the AZT/3TC combination on antiviral activity: FIVBang; for FIV replication in PBMC (RT activity), result in words: FIVBang 100 TCID50, drug added immediately before inoculation, nontoxic doses
Description: Nucleoside analogue and PI doses were 0.1 μM in Experiment 1 (panel A) and 0.05 μM and 0.01 μM, respectively, in Experiment 2 (panel B).
(§4) As a means to simulate in vivo conditions, primary peripheral blood mononuclear cells (PBMC) from specific pathogen free (SPF) cats were next used as the indicator cells. Primary PBMC isolated by ficoll hypaque method were stimulated with concanavalin A for 3 days and cultured for an additional 2 weeks before their use in drug studies (Staszewski, 1995). Antiretroviral drug(s) were added to the PBMC cultures (1×10^6 cells/ml) immediately before FIVBang, (subtype B) or FIVUK-8(subtype A) inoculation of 100 50% tissue culture infectious dose (TCID50).

FIVUK-8 = experiment: Anti-FIV activity (RT activity) in primary cat PBMC infected with FIVUK-8; type: cell-based, Feline immunodeficiency virus; settings: for effect of adding the protease inhibitor to the AZT/3TC combination on antiviral activity: FIVUK-8; for FIV replication in PBMC (RT activity), result in words: FIVUK-8 100 TCID50, drug added immediately before inoculation, nontoxic doses
Description: Nucleoside analogue and P1 doses were 0.1 μM and 0.01-0.5 μM, respectively, in Experiment 1 (panel A) and 0.05 μM and 0.01-0.5 μM respectively, in Experiment 2 (panel B).
as §4

FIV = settings: background statement, no reference given; cited from earlier work
FIV protease = FIV protease (Feline immunodeficiency virus, UniProt P16088); settings: Dunn et al., 1994; Wlodawer et al., 1995; cited from earlier work
HIV protease = HIV protease (Human immunodeficiency virus type 1 group M subtype B, UniProt P04585); settings: Dunn et al., 1994; Wlodawer et al., 1995; cited from earlier work

## CC(C)(C)NC(=O)[C@@H]1CN(Cc2cccnc2)CCN1C[C@@H](O)C[C@@H](Cc1ccccc1)C(=O)N[C@H]1c2ccccc2C[C@H]1O [IDV, Indinavir]
FIVPet
  anti-FIV activity (RT activity), result in words: neither SQV nor IDV alone had significant anti-FIV effect
FIVBang [1]
  anti-FIV activity (RT activity), result in words: neither SQV nor IDV alone had significant anti-FIV effect
FIVBang [2]
  effect of adding the protease inhibitor to the AZT/3TC combination on antiviral activity: did not enhance the antiviral activity of the AZT/3TC combination
  FIV replication in PBMC (RT activity), result in words: lack of anti-FIV activity
FIVUK-8
  effect of adding the protease inhibitor to the AZT/3TC combination on antiviral activity: did not enhance the antiviral activity of the AZT/3TC combination
  FIV replication in PBMC (RT activity), result in words: lack of anti-FIV activity
FIV
  FIV replication in PBMC in vitro: do not inhibit FIV replication

## CC(C)c1nc(CN(C)C(=O)N[C@H](C(=O)N[C@@H](Cc2ccccc2)C[C@H](O)[C@H](Cc2ccccc2)NC(=O)OCc2cncs2)C(C)C)cs1 [Ritonavir]
FIV
  FIV replication in PBMC in vitro: do not inhibit FIV replication

## Cc1c(O)cccc1C(=O)N[C@@H](CSc1ccccc1)[C@H](O)CN1C[C@H]2CCCC[C@H]2C[C@H]1C(=O)NC(C)(C)C [Nelfinavir]
FIV
  FIV replication in PBMC in vitro: do not inhibit FIV replication

## CC(C)[C@H](NC(=O)[C@H](Cc1cccc2ccccc12)CS(=O)(=O)C(C)(C)C)C(=O)N[C@@H](Cc1ccccc1)[C@H](O)[C@H](O)[C@H](Cc1ccccc1)NC(=O)[C@@H](NC(=O)[C@H](Cc1cccc2ccccc12)CS(=O)(=O)C(C)(C)C)C(C)C [FIV-PI]
FIVPet; treated for 3 weeks
  inhibition of RT activity / FIV replication: 70-80%
FIVBang [1]; treated for 3 weeks
  inhibition of RT activity / FIV replication: 70-80%
FIVBang [2]
  FIV replication in PBMC (RT activity), result in words: inhibited FIV replication
FIVUK-8
  FIV replication in PBMC (RT activity), result in words: inhibited FIV replication
FIV protease
  binding to FIV protease: efficiently binds
HIV protease
  binding to HIV protease: efficiently binds

## CC(C)(C)NC(=O)[C@@H]1C[C@@H]2CCCC[C@@H]2CN1C[C@@H](O)[C@H](Cc1ccccc1)NC(=O)[C@H](CC(N)=O)NC(=O)c1ccc2ccccc2n1 [SQV, Saquinavir]
FIVPet
  anti-FIV activity (RT activity), result in words: neither SQV nor IDV alone had significant anti-FIV effect
FIVBang [1]
  anti-FIV activity (RT activity), result in words: neither SQV nor IDV alone had significant anti-FIV effect
FIVBang [2]
  effect of adding the protease inhibitor to the AZT/3TC combination on antiviral activity: did not enhance the antiviral activity of the AZT/3TC combination
  FIV replication in PBMC (RT activity), result in words: lack of anti-FIV activity
FIVUK-8
  effect of adding the protease inhibitor to the AZT/3TC combination on antiviral activity: did not enhance the antiviral activity of the AZT/3TC combination
  FIV replication in PBMC (RT activity), result in words: lack of anti-FIV activity
FIV
  FIV replication in PBMC in vitro: do not inhibit FIV replication
